Here are results for 51 molecules from PubChem BioAssay AID2842 (Southern Research Institute, 2010).

In brackets after ≈: the same amount, converted by molar mass.

The assay concerns M. tuberculosis H37Rv growth inhibition. The experiment in a line: Mycobacterium tuberculosis H37Rv growth inhibition, putative kinase inhibitor library, confirmatory dose response (AID 2842).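 Also: bacteria incubated one week before Alamar blue readout.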

A word on the IC90: it is the point of the concentration-response curve where the effect stands at 90%.

`COc1ccc(OCC(=O)Nc2ccc(I)cc2C)cc1`: the IC90 was 3.2 µg/mL (≈ 8.06 µM).

For `O=C(CSCc1ccc(Cl)c(Cl)c1)Nc1ccc(F)cc1`, the IC90 was 12.9 µg/mL (≈ 37.4 µM).

Consider `NNC(=O)c1ccc(-c2ccccc2Cl)o1`, for which the IC90 is 3.96 µg/mL (≈ 16.7 µM).

For `O=C1C(Cl)=C(Nc2ccccc2O)C(=O)N1c1ccccc1`, the concentration for an effect of 90% (IC90) was 3.29 µg/mL (≈ 10.5 µM).

With `Cc1ccc(-n2ncc3c(NC(C)C)ncnc32)cc1Cl`, the IC90 is 64 µg/mL (≈ 212 µM).

Regarding `CCCCOc1ccc(C(=O)Nc2nnc(-c3ccccn3)o2)cc1`, the concentration for an effect of 90% (IC90) is 11.6 µg/mL (≈ 34.3 µM).

On to `COc1cccc2sc(Nc3nnc(-c4cccs4)o3)nc12`, for which the IC90 is 3.36 µg/mL (≈ 10.2 µM).

As for `COc1ccc(-c2nnc(NC(=O)c3ccccc3F)o2)cc1`, the IC90 is 66.9 µg/mL (≈ 214 µM).

For `COc1ccc(-c2nc(NC(=O)c3cccc(C)c3)sc2C)cc1`, the IC90 was 5.78 µg/mL (≈ 17.1 µM).

On to `O=C(CCSc1ccccc1)Nc1nnc(-c2ccccc2)o1`, for which the IC90 was 12.9 µg/mL (≈ 39.7 µM).

Consider `COc1cc(OC)cc(C(=O)Nc2nnc(-c3cccc(SC)c3)o2)c1`, for which the 90% effect concentration (IC90) is 12.4 µg/mL (≈ 33.5 µM).

As for `O=C(c1ccco1)N(CCCn1ccnc1)c1nc2ccc(Cl)cc2s1`, the concentration for an effect of 90% (IC90) was 0.89 µg/mL (≈ 2.3 µM).

`COc1ccc(Nc2nc(N3CCN(Cc4ccccc4)CC3)nc3nccnc23)cc1`: the IC90 was 4.69 µg/mL (≈ 11 µM).

As for `c1ccc2sc(Nc3nc4cc5c(cc4s3)OCO5)nc2c1`, the concentration for an effect of 90% (IC90) is 18.6 µg/mL (≈ 56.9 µM).

With `CC1CCCCN1S(=O)(=O)c1ccc(C(=O)Nc2nnc(-c3ccc(Br)cc3)o2)cc1` (stereo unspecified), the IC90 was 17.3 µg/mL (≈ 34.2 µM).

Consider `O=C(c1ccc(NC2=C(Cl)C(=O)N(Cc3ccccc3)C2=O)cc1)N1CCCCC1`, for which the 90% effect concentration (IC90) is 6.24 µg/mL (≈ 14.7 µM).

`O=C(CN1C(=O)CCC1=O)Nc1nnc(-c2ccc3c(c2)CCCC3)o1`: the 90% effect concentration (IC90) was 27.6 µg/mL (≈ 78 µM).

For the molecule `CCOC(=O)N1CCc2c(sc(NC(=O)c3ccc(Oc4ccccc4)cc3)c2C(N)=O)C1`, the IC90 was 0.98 µg/mL (≈ 2.11 µM).

Regarding `COc1ccccc1-c1nnc(Nc2nc3ccc(SC)cc3s2)o1`, the concentration for an effect of 90% (IC90) is 15.9 µg/mL (≈ 42.9 µM).

For the molecule `O=C(Nc1nnc(-c2ccc(Br)cc2)o1)c1ccc(Cl)s1`, the IC90 is 1.87 µg/mL (≈ 4.86 µM).

For the molecule `COC(=O)c1c(NC(=O)C(c2ccccc2)c2ccccc2)sc2c1CC(C)(C)NC2(C)C`, the IC90 was 6.07 µg/mL (≈ 13.1 µM).

As to `CCOC(=O)c1c(NC(=O)/C=C/C(N)=O)sc2c1CCCC2`, the 90% effect concentration (IC90) was 6.76 µg/mL (≈ 21 µM).

Consider `COc1ccc(-c2nc(N3CCC(C)CC3)nc3n[nH]c(N)c23)cc1`, for which the IC90 is 2.14 µg/mL (≈ 6.32 µM).

Regarding `CSc1cccc2sc(Nc3cccc(Br)c3)nc12`, the IC90 was 6.73 µg/mL (≈ 19.2 µM).

Consider `Cc1ccc(C)c(-c2csc(NC(=O)c3ccc([N+](=O)[O-])s3)n2)c1`, for which the IC90 was 3.37 µg/mL (≈ 9.38 µM).

`O=C(Nc1nnc(-c2ccccc2Cl)o1)C1=COCCO1`: the IC90 is 4.3 µg/mL (≈ 14 µM).

As for `Cc1[nH]c2ccccc2c1/C=N/NC(=O)c1cc(-c2ccc(Br)s2)[nH]n1`, the concentration for an effect of 90% (IC90) is 12.2 µg/mL (≈ 28.6 µM).

As to `O=C(CCOc1ccccc1)Nc1nnc(-c2ccc3c(c2)OCCO3)o1`, the IC90 was 95.9 µg/mL (≈ 261 µM).

On to `COc1ccc(-c2nnc(NC(=O)c3ccc(Cl)cc3Cl)o2)cc1`, for which the IC90 was 14.1 µg/mL (≈ 38.7 µM).

With `Cc1ccc(C)c(-c2nnc(NC(=O)c3ccc(Br)s3)o2)c1`, the IC90 was 6.75 µg/mL (≈ 17.8 µM).

`O=c1cnnc(N/N=C/c2c(O)ccc3ccccc23)[nH]1`: the concentration for an effect of 90% (IC90) was below 0.2 µg/mL.

Turning to `CC1CCc2c(sc(Nc3nc4ccc(F)cc4s3)c2C(N)=O)C1` (stereo unspecified), the IC90 is 35.8 µg/mL (≈ 99 µM).

With `Cc1ccc2sc(NNC(=O)c3cccs3)nc2c1C`, the IC90 was 23.2 µg/mL (≈ 76.4 µM).

Take `O=C(CCOc1ccccc1)Nc1nnc(-c2ccc3c(c2)CCCC3)o1`: the IC90 was 18.1 µg/mL (≈ 49.8 µM).

For `COc1ccc(Nc2nc(Nc3ccc(C)c(C)c3)nc3nccnc23)cc1`, the IC90 is 3.93 µg/mL (≈ 10.6 µM).

As to `CCOc1cc(-c2nnc(NC(=O)C(C)C)o2)cc(OCC)c1OCC`, the 90% effect concentration (IC90) was 9.11 µg/mL (≈ 25.1 µM).

As for `CC(C)OC(=O)COc1ccc2cc(-c3ccccc3)c(=O)oc2c1`, the IC90 was 2.97 µg/mL (≈ 8.78 µM).

With `COc1cccc(C(=O)Nc2nnc(C3=COCCO3)o2)c1`, the concentration for an effect of 90% (IC90) is 4.85 µg/mL (≈ 16 µM).

With `CC(C)C(=O)Nc1nnc(-c2ccc(Br)cc2)o1`, the IC90 was 1.24 µg/mL (≈ 4 µM).

Turning to `Cc1cc(NC(=O)/C=C/c2ccc([N+](=O)[O-])s2)no1`, the concentration for an effect of 90% (IC90) is 4.04 µg/mL (≈ 14.5 µM).

As for `CCOC(=O)/C=C/CSc1nc2sc3c(c2c(=O)[nH]1)CCCC3`, the concentration for an effect of 90% (IC90) is 12.8 µg/mL (≈ 36.6 µM).

Regarding `CC(C)c1ccc(OCC(=O)Nc2nccs2)cc1`, the concentration for an effect of 90% (IC90) is 6.88 µg/mL (≈ 24.9 µM).

In the case of `CC(C)CCn1c(NCCc2ccccc2)nc2c1c(=O)n(C)c(=O)n2C`, the IC90 was 11 µg/mL (≈ 29.9 µM).

On to `COc1ccc(C2c3cccn3CCN2C(=O)Nc2ccc(Cl)cc2)cc1` (stereo unspecified), for which the IC90 was 9.87 µg/mL (≈ 25.8 µM).

Regarding `Cc1ccc(Nc2nc(N3CCCC3)nc3nccnc23)cc1C`, the IC90 was 3.21 µg/mL (≈ 10 µM).

On to `Cc1ccc2sc(N(CCCn3ccnc3)C(=O)c3ccc(F)cc3)nc2c1C`, for which the IC90 is 3.68 µg/mL (≈ 9.01 µM).

With `O=C(Nc1nnc(-c2ccc(F)cc2)o1)c1ccco1`, the 90% effect concentration (IC90) is 2.84 µg/mL (≈ 10.4 µM).

`COC(=O)CSc1ncnc2c1cnn2-c1ccc(F)cc1`: the concentration for an effect of 90% (IC90) is 4.54 µg/mL (≈ 14.3 µM).

Consider `CSc1ccccc1-c1nnc(NC(=O)c2cc(Cl)sc2Cl)o1`, for which the concentration for an effect of 90% (IC90) was 11.7 µg/mL (≈ 30.2 µM).

For the molecule `Cc1oc2c(c1C(=O)NCc1cccnc1)C(=O)c1ccccc1C2=O`, the IC90 was 8.29 µg/mL (≈ 23.9 µM).

In the case of `CCOC(=O)c1c(NC(=O)Cc2cccc3ccccc23)sc2c1CC(C)(C)NC2(C)C`, the IC90 was 2.08 µg/mL (≈ 4.62 µM).
